# Test results published in US20170304386A1, “METHOD FOR INHIBITING SURVIVAL, TUMORIGENESIS AND METASTASIS OF CANCER CELLS AND/OR CANCER STEM CELLS” (priority 2014, published 2017).
# How the values were obtained:
# [1] = tested on: culture-enriched TICs (SPH) of HT29 and ALDH+ cells isolated from HCW primary liver metastasis cancer cells and fresh cancer cells; test: TUNEL assay of TICs cultured in spheroid (suspension) condition; type: cell-based, human; details: spheroid condition 24 hours; S3I-201 50 μM
# Protocol: FIGS. 8a-8f show the suspension survival ability determines tumourigenicity and corresponds to clinical tumour staging and survival. […] FIGS. 8b and 8c show the culture-enriched TICs (SPH) of HT29 and ALDH^+ cells isolated from HCW primary liver metastasis cancer cells and fresh cancer cells were cultured in spheroid condition for 24 hours with treatment of STAT3 inhibitor (S3I-201, 50 μM) or 1:25 dilution of the 0.25 mg/ml anti-Col XVII antibody, followed by TUNEL assay. (Ab-1, Abcam; Ab-2, Pierce). […] FIG. 8e (top), representative pictures of positive staining of colorectal tumour tissues (different stages) are shown, FIG. 8e (bottom), quantification and the correlation between protein expression and tumour stages was subsequently determined. The results are expressed as percentage of DAB positive cells and every single plot represents a patient. The median is shown as a single black line. […] The expression of pS727STAT≧40% or Col XVII 50% was regarded as positive. Asterisks indicate significant differences determined by Fisher's exact test, one-way ANOVA, and log-rank test. […]
# Detection of apoptosis was performed (Roche Molecular Biochemicals, Indianapolis, Ind.). […] Immunofluorescence is observed with fluorescence microscope.
# enriched TICs (HT29) = test: Tumourigenicity of enriched TICs (xenograft transplantation); type: in vivo, athymic nude mice; details: TICs directly treated with S3I-201 50 μM, or S3I-201 5 mg/kg intravenously post injection of TICs
# Protocol: FIGS. 8a-8f show the suspension survival ability determines tumourigenicity and corresponds to clinical tumour staging and survival. […] FIGS. 8b and 8c show the culture-enriched TICs (SPH) of HT29 and ALDH^+ cells isolated from HCW primary liver metastasis cancer cells and fresh cancer cells were cultured in spheroid condition for 24 hours with treatment of STAT3 inhibitor (S3I-201, 50 μM) or 1:25 dilution of the 0.25 mg/ml anti-Col XVII antibody, followed by TUNEL assay. (Ab-1, Abcam; Ab-2, Pierce). […] FIG. 8e (top), representative pictures of positive staining of colorectal tumour tissues (different stages) are shown, FIG. 8e (bottom), quantification and the correlation between protein expression and tumour stages was subsequently determined. The results are expressed as percentage of DAB positive cells and every single plot represents a patient. The median is shown as a single black line. […] The expression of pS727STAT≧40% or Col XVII 50% was regarded as positive. Asterisks indicate significant differences determined by Fisher's exact test, one-way ANOVA, and log-rank test.
# The protocols were approved by the Institutional Animal Committee of Taipei Veterans General Hospital. […] Tumour cells were injected subcutaneously (s.c.) and tumour growth was monitored every week for up to 3 months. […]
smiles,measurement,setting,value
Cc1ccc(S(=O)(=O)OCC(=O)Nc2ccc(C(=O)O)c(O)c2)cc1 [S3I-201],killing of TICs in suspension culture (TUNEL assay),[1],killed TICs
same,tumour initiation,enriched TICs (HT29),inhibited tumour initiation
